Measured values taken from patent US6518243B1, “Desleucyl glycopeptide antibiotics and methods of making same” (Trustees of Princeton University, priority 1999, dated 2003).

Columns and labels:
S. aureus (ATCC 29213) = assay: Zone of inhibition screen, 96 well agar array format; format: cell-based; parameters: scale not given here; details: zone of inhibition relative to 1 mg/ml stock solution of p-chlorobiphenylvancomycin
Summary of the method: (§1)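 Agar-array screen, 96-well; single compounds vs. strain panel (panel also incl. E. faecium ATCC 49624); antibacterial activity scored.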

E. faecalis (CL 4877) = assay: as above; format: cell-based; parameters: scale not given here; details: zone of inhibition relative to 1 mg/ml stock solution of p-chlorobiphenylvancomycin
Summary of the method: as §1

SMILES | zone score, S. aureus ATCC 29213 (S. aureus (ATCC 29213)) | zone score, E. faecalis CL 4877 (E. faecalis (CL 4877))
C#CCC(NC(C)=O)C(=O)NC1C(=O)NC(CC(N)=O)C(=O)NC2C(=O)NC3C(=O)NC(C(=O)NC(C(=O)O)c4cc(O)cc(O)c4-c4cc3ccc4O)C(O)c3ccc(c(Cl)c3)Oc3cc2cc(c3OC2OC(CO)C(O)C(O)C2OC2CC(C)(NCc3ccc(-c4ccc(Cl)cc4)cc3)C(O)C(C)O2)Oc2ccc(cc2Cl)C1O (mixture of isomers) [Compound 177] | 2 | 2
CC1OC(OC2C(Oc3c4cc5cc3Oc3ccc(cc3Cl)C(O)C3NC(=O)C(NC(=O)C5NC(=O)C(CC(N)=O)NC(=O)C(NC(=O)C(N)CC(=O)OC(C)(C)C)C(O)c5ccc(c(Cl)c5)O4)c4ccc(O)c(c4)-c4c(O)cc(O)cc4C(C(=O)O)NC3=O)OC(CO)C(O)C2O)CC(C)(NCc2ccc(-c3ccc(Cl)cc3)cc2)C1O (stereo not shown) [Compound 3] | 2 | 2
C[C@H]1O[C@H](O[C@H]2[C@H](Oc3c4cc5cc3Oc3ccc(cc3Cl)[C@@H](O)[C@@H](NC(=O)C(N)CC3CCCCC3)C(=O)N[C@@H](CC(N)=O)C(=O)N[C@H]5C(=O)N[C@H]3C(=O)N[C@H](C(=O)N[C@@H](C(=O)O)c5cc(O)cc(O)c5-c5cc3ccc5O)[C@H](O)c3ccc(c(Cl)c3)O4)O[C@H](CO)[C@@H](O)[C@@H]2O)C[C@@](C)(NCc2ccc(-c3ccc(Cl)cc3)cc2)[C@H]1O (stereo partly shown) [Compound 4] | 2 | 2
CC(NCCCCC(N)C(=O)NC1C(=O)NC(CC(N)=O)C(=O)NC2C(=O)NC3C(=O)NC(C(=O)NC(C(=O)O)c4cc(O)cc(O)c4-c4cc3ccc4O)C(O)c3ccc(c(Cl)c3)Oc3cc2cc(c3OC2OC(CO)C(O)C(O)C2OC2CC(C)(NCc3ccc(-c4ccc(Cl)cc4)cc3)C(O)C(C)O2)Oc2ccc(cc2Cl)C1O)=C1C(=O)CC(C)(C)CC1=O (stereo not shown) [Compound 39] | 2 | 2
CC(=O)NCSCC(N)C(=O)NC1C(=O)NC(CC(N)=O)C(=O)NC2C(=O)NC3C(=O)NC(C(=O)NC(C(=O)O)c4cc(O)cc(O)c4-c4cc3ccc4O)C(O)c3ccc(c(Cl)c3)Oc3cc2cc(c3OC2OC(CO)C(O)C(O)C2OC2CC(C)(NCc3ccc(-c4ccc(Cl)cc4)cc3)C(O)C(C)O2)Oc2ccc(cc2Cl)C1O (stereo not shown) [Compound 49] | 2 | 2
CC1OC(OC2C(Oc3c4cc5cc3Oc3ccc(cc3Cl)C(O)C3NC(=O)C(NC(=O)C5NC(=O)C(CC(N)=O)NC(=O)C(NC(=O)C(N)CCCNC(=N)N)C(O)c5ccc(c(Cl)c5)O4)c4ccc(O)c(c4)-c4c(O)cc(O)cc4C(C(=O)O)NC3=O)OC(CO)C(O)C2O)CC(C)(NCc2ccc(-c3ccc(Cl)cc3)cc2)C1O (stereo not shown) [Compound 90] | 2 | 2
CC1OC(OC2C(Oc3c4cc5cc3Oc3ccc(cc3Cl)C(O)C(NC(=O)C3(C(N)=O)CC3)C(=O)NC(CC(N)=O)C(=O)NC5C(=O)NC3C(=O)NC(C(=O)NC(C(=O)O)c5cc(O)cc(O)c5-c5cc3ccc5O)C(O)c3ccc(c(Cl)c3)O4)OC(CO)C(O)C2O)CC(C)(NCc2ccc(-c3ccc(Cl)cc3)cc2)C1O (stereo not shown) [Compound 98] | 2 | 2
CC(=O)Nc1ccc(C(=O)NC2C(=O)NC(CC(N)=O)C(=O)NC3C(=O)NC4C(=O)NC(C(=O)NC(C(=O)O)c5cc(O)cc(O)c5-c5cc4ccc5O)C(O)c4ccc(c(Cl)c4)Oc4cc3cc(c4OC3OC(CO)C(O)C(O)C3OC3CC(C)(NCc4ccc(-c5ccc(Cl)cc5)cc4)C(O)C(C)O3)Oc3ccc(cc3Cl)C2O)cc1NC(C)=O (stereo not shown) [Compound 104] | 2 | 2
CC(=O)NCCCC(=O)NC1C(=O)NC(CC(N)=O)C(=O)NC2C(=O)NC3C(=O)NC(C(=O)NC(C(=O)O)c4cc(O)cc(O)c4-c4cc3ccc4O)C(O)c3ccc(c(Cl)c3)Oc3cc2cc(c3OC2OC(CO)C(O)C(O)C2OC2CC(C)(NCc3ccc(-c4ccc(Cl)cc4)cc3)C(O)C(C)O2)Oc2ccc(cc2Cl)C1O (stereo not shown) [Compound 107] | 2 | 2
CC(=O)NC(C)C(=O)NC1C(=O)NC(CC(N)=O)C(=O)NC2C(=O)NC3C(=O)NC(C(=O)NC(C(=O)O)c4cc(O)cc(O)c4-c4cc3ccc4O)C(O)c3ccc(c(Cl)c3)Oc3cc2cc(c3OC2OC(CO)C(O)C(O)C2OC2CC(C)(NCc3ccc(-c4ccc(Cl)cc4)cc3)C(O)C(C)O2)Oc2ccc(cc2Cl)C1O (stereo not shown) [Compound 110] | 2 | 2
CSCCC(NC(C)=O)C(=O)NC1C(=O)NC(CC(N)=O)C(=O)NC2C(=O)NC3C(=O)NC(C(=O)NC(C(=O)O)c4cc(O)cc(O)c4-c4cc3ccc4O)C(O)c3ccc(c(Cl)c3)Oc3cc2cc(c3OC2OC(CO)C(O)C(O)C2OC2CC(C)(NCc3ccc(-c4ccc(Cl)cc4)cc3)C(O)C(C)O2)Oc2ccc(cc2Cl)C1O (stereo not shown) [Compound 115] | 2 | 2
CC(=O)N1CC(O)CC1C(=O)NC1C(=O)NC(CC(N)=O)C(=O)NC2C(=O)NC3C(=O)NC(C(=O)NC(C(=O)O)c4cc(O)cc(O)c4-c4cc3ccc4O)C(O)c3ccc(c(Cl)c3)Oc3cc2cc(c3OC2OC(CO)C(O)C(O)C2OC2CC(C)(NCc3ccc(-c4ccc(Cl)cc4)cc3)C(O)C(C)O2)Oc2ccc(cc2Cl)C1O (stereo not shown) [Compound 121] | 2 | 2
CC1OC(OC2C(Oc3c4cc5cc3Oc3ccc(cc3Cl)C(O)C3NC(=O)C(NC(=O)C5NC(=O)C(CC(N)=O)NC(=O)C(NC(=O)CN(CCO)CCO)C(O)c5ccc(c(Cl)c5)O4)c4ccc(O)c(c4)-c4c(O)cc(O)cc4C(C(=O)O)NC3=O)OC(CO)C(O)C2O)CC(C)(NCc2ccc(-c3ccc(Cl)cc3)cc2)C1O (stereo not shown) [Compound 130] | 2 | 2
CC(NC(=O)OC(C)(C)C)C(=O)NCC(=O)NCC(=O)NC1C(=O)NC(CC(N)=O)C(=O)NC2C(=O)NC3C(=O)NC(C(=O)NC(C(=O)O)c4cc(O)cc(O)c4-c4cc3ccc4O)C(O)c3ccc(c(Cl)c3)Oc3cc2cc(c3OC2OC(CO)C(O)C(O)C2OC2CC(C)(NCc3ccc(-c4ccc(Cl)cc4)cc3)C(O)C(C)O2)Oc2ccc(cc2Cl)C1O (stereo not shown) [Compound 131] | 2 | 2
CC(NC(=O)OC(C)(C)C)C(=O)NCC(=O)N(C)CC(=O)NC1C(=O)NC(CC(N)=O)C(=O)NC2C(=O)NC3C(=O)NC(C(=O)NC(C(=O)O)c4cc(O)cc(O)c4-c4cc3ccc4O)C(O)c3ccc(c(Cl)c3)Oc3cc2cc(c3OC2OC(CO)C(O)C(O)C2OC2CC(C)(NCc3ccc(-c4ccc(Cl)cc4)cc3)C(O)C(C)O2)Oc2ccc(cc2Cl)C1O (stereo not shown) [Compound 132] | 2 | 2
CC1OC(OC2C(Oc3c4cc5cc3Oc3ccc(cc3Cl)C(O)C3NC(=O)C(NC(=O)C5NC(=O)C(CC(N)=O)NC(=O)C(NC(=O)CCC(NC(=O)OC(C)(C)C)C(N)=O)C(O)c5ccc(c(Cl)c5)O4)c4ccc(O)c(c4)-c4c(O)cc(O)cc4C(C(=O)O)NC3=O)OC(CO)C(O)C2O)CC(C)(NCc2ccc(-c3ccc(Cl)cc3)cc2)C1O (stereo not shown) [Compound 137] | 2 | 2
CC1OC(OC2C(Oc3c4cc5cc3Oc3ccc(cc3Cl)C(O)C3NC(=O)C(NC(=O)C5NC(=O)C(CC(N)=O)NC(=O)C(NC(=O)CNC(=O)CNC(=O)CNC(=O)OC(C)(C)C)C(O)c5ccc(c(Cl)c5)O4)c4ccc(O)c(c4)-c4c(O)cc(O)cc4C(C(=O)O)NC3=O)OC(CO)C(O)C2O)CC(C)(NCc2ccc(-c3ccc(Cl)cc3)cc2)C1O (stereo not shown) [Compound 139] | 2 | 2
